Assay results reported in paper PMC10463376, “Design, synthesis, in vitro anticancer, molecular docking and SAR studies of new series of pyrrolo[2,3-d]pyrimidine derivatives” (BMC Chemistry, 2023).
Entries after “also recorded” stand apart in the source; their conditions may differ.

How the values were obtained:
Assay type in all cases: cell-based, human
[1] = tested on: breast cancer cell line (MCF-7); assay: DNA fragmentation assay, MCF7; settings: MCF7, IC50, 24 h, vs negative control (P < 0.01); order 14a > 18b > positive > 16b > 14b
Experimental: (§1) The DNA fragmentation assay in a pancreatic cell line (Paca2), breast cancer cell lines (MCF-7) and lung cell line (A549) was performed in concordance with the premises established by Yawata with some modifications. Briefly, after 24 h of exposure of Paca2, MCF-7 and A549 cancer cell lines to the prepared compounds in different Petri dishes (60 × 15 mm, Greiner), the cells were suspended and homogenized in 1 ml of medium and then centrifuged for 10 min at 900 rpm. The genomic DNA was extracted as shown in Yawata. About 1 × 10^6 cells of each tested cancer cell line were treated with the IC50 values of the tested compounds. All the cells were collected via trypsinization and washed with Dulbecco`s Phosphate Buffered Saline. Then, the cells were treated with the lysis buffer containing 5 mM ethylenediaminetetraacetic acid (EDTA), 10 mM Tris (pH 7.4), 0.5% Triton X-100 and 150 mM NaCl for 35 min on ice. After that, the lysates were vortexed and centrifuged for 20 min at 10.000 xg. The fragmented DNA was extracted from the supernatant with an equal volume of isoamyl alcohol: chloroform: neutral phenol mixture (1:24:25). Finally, the percentage of fragmented DNA was determined by performing gel electrophoresis using 2% agarose gel containing 0.1 μg/ml ethidium bromide.
Pancreatic cancer cell line (Paca2), breast cancer cell line (MCF-7) and lung cancer cell line (A549) were used to determine the percentage of DNA fragmentation after the treatment with IC50 of the tested compounds. The selected cells were suspended in 0.5 ml of lysis buffer containing 1 mM EDTA, 10 mM Tris–HCl (pH 8) and 0.2% triton X-100. Then, the cells were centrifuged at 10.000 rpm for 20 min at 4 °C. After removing the supernatant, the pellets were re-suspended in 0.5 ml of lysis buffer. Then, 0.5 ml of 25% tri-chloroacetic acid (TCA) was added to the pellets (P) and the supernatants (S), and incubated for 24 h at 4 °C. Afterwards, the cells were centrifuged at 4 °C for 25 min at 10,000 rpm and the pellets were suspended in […] of 5% TCA, followed by incubation at 80 °C for 20 min. Finally, […] of Diphenyl Amine (DPA) solution [[…] of sulfuric acid, 150 mg DPA in 10 ml glacial acetic acid, and […] acetaldehyde (16 mg/ml)] was added to each cell sample and kept at room temperature for 24 h. The percentage of fragmented DNA was measured from the absorbance reading at 600 nm wavelength using the following formula:
% Fragmented DNA = [OD(S)/[OD(S) + OD(P)] × 100 (OD: optical density, S: supernatant, P: pellet).

MCF7 cells [2] = assay: Annexin V-FITC/PI apoptosis flow cytometry, MCF7; settings: for percentage of late apoptotic cells (Q1-UR) / percentage of necrotic cells (Q1-UL) / percentage of early apoptotic cells (Q1-LR): MCF7, 24 h, IC50; for percentage of late apoptotic cells (Q1-UR): control 0.41%; for percentage of necrotic cells (Q1-UL): control 1.01%; for percentage of early apoptotic cells (Q1-LR): control 7.8%; for induction of apoptotic death: MCF7 cells
Experimental: The percentage of apoptotic cells was detected by using Annexin V-FITC kit catalog number (#K101-25). About 2X10^6 of MCF7 and Paca2 cells were washed in 500 µl of 1 × PBS. Then, the cells were centrifuged and the supernatant was discarded. The cells pellet were re-suspended in the annexin V incubation reagent. The annexin V incubation reagent contained 10 μl binding buffer (10 ×), 10 μl propidium iodide, 1 μl annexin V-FITC, and 79 μl deionized water. The cells were incubated in 100 μl annexin V incubation reagent for 15 min in the dark at room temperature. Finally, the apoptotic cell percentage was detected by flow cytometry using the FITC signal detector (usually FL-1) and PI staining by the phycoerythrin emission signal detector (usually FL-2).

DR4 [3] = assay: RT-qPCR DR4 mRNA in A549
Experimental: (§2) All of the extractions were conducted on ice with ice-cold reagents. Total RNA from the different cell lines was isolated using Trizol (Invitrogen; Life Technologies, USA) according to the method of Sthoeger et al.. The 260:280 ratios were measured to determine RNA quality after the isolation method was completed according to the manufacturer’s instructions. A high-capacity cDNA reverse transcription kit was used to produce complementary DNA (cDNA) (Applied Biosystems, USA). […] The relative gene expression method (i.e., ΔΔCT) was used to analyze the real-time PCR data, as explained in Applied Biosystem User Bulletin No. 2. Each sample and gene were normalized using the β-actin gene.

DR5 [4] = assay: RT-qPCR DR5 mRNA in A549
Experimental: as §2

Bcl-2 [5] = assay: RT-qPCR Bcl-2 mRNA in A549; settings: A549, vs negative control
Experimental: as §2

P53 = assay: RT-qPCR P53 mRNA in A549; settings: A549, vs negative control
Experimental: as §2

Casp-3 = assay: RT-qPCR Casp-3 mRNA in A549
Experimental: as §2

BAX [6] = assay: RT-qPCR BAX mRNA in A549; settings: A549, vs negative control
Experimental: as §2

CDK4 = assay: RT-qPCR CDK4 mRNA in Paca2; settings: 17 vs both Dox. and negative control
Experimental: as §2

[7] = tested on: pancreatic cell line (Paca2); assay: DNA fragmentation assay, Paca2; settings: Paca2, IC50, 24 h, vs negative control (P < 0.01); 17 higher than Dox.
Experimental: as §1, with “After that, the lysates were vortexed and centrifuged for 20 min at 10.000 xg. The fragmented DNA was extracted from the supernatant with an equal volume of isoamyl alcohol: chloroform: neutral phenol mixture (1:24:25).” left out
Pancreatic cancer cell line (Paca2), breast cancer cell line (MCF-7) and lung cancer cell line (A549) were used to determine the percentage of DNA fragmentation after the treatment with IC50 of the tested compounds. […] The percentage of fragmented DNA was measured from the absorbance reading at 600 nm wavelength using the following formula: […]

DR5 [8] = assay: RT-qPCR DR5 mRNA in Paca2; settings: 17 vs both Dox. and negative control
Experimental: as §2

DR4 [9] = assay: RT-qPCR DR4 mRNA in Paca2; settings: 17 vs both Dox. and negative control
Experimental: as §2

IL-8 = assay: RT-qPCR IL-8 mRNA in Paca2; settings: 17 vs both Dox. and negative control
Experimental: as §2

Bcl-2 [10] = assay: RT-qPCR Bcl-2 mRNA in Paca2; settings: 17 vs both Dox. and negative control
Experimental: as §2

BAX [11] = assay: RT-qPCR BAX mRNA in Paca2; settings: 17 vs both Dox. and negative control
Experimental: as §2

MCF7 cells [12] = assay: Flow cytometric cell cycle analysis (PI), MCF7; settings: MCF7, 24 h, IC50 concentration; for cell cycle arrest (phase): vs untreated control; for percentage of cells in the G0/G1 phase: control 11.43%
Experimental: Herein, the negative control was the untreated MCF7 cells and Doxorubicin was used as a positive control. Firstly, after the treatment time of 24 h, MCF7 cells were centrifuged at 1000 rpm for 5 min at 4 °C. The supernatant was discarded and the cells pellet were washed in phosphate-buffered saline (PBS). Then, the cells pellet were centrifuged at 1000 rpm for another 5 min. Afterward, the cells were collected in a single-cell suspension and maintained in 70% ethanol overnight on ice. Then, cells were washed with 1 ml PBS. At last, 200 µl 1 × propidium iodide (PI) mixture was added to the cells pellet in the dark at room temperature for 30 min. Then, the DNA content was analyzed by subjecting the cells to an Epics XL-MCL flow cytometer (Beckman Coulter, Miami, FL). The distribution of cells at different phases of the cell cycle was determined by Multi-cycle software (Phoenix Flow Systems, San Diego, CA).

## COc1ccc(-c2c(Cl)n(-c3ccc(Cl)cc3Cl)c3ncnc(N4CCN(C)CC4)c23)cc1OC [Compound 16b, 6-chloro-7-(2,4-dichlorophenyl)-5-(3,4-dimethoxyphenyl)-4-(4-methylpiperazin-1-yl)-7H-pyrrolo[2,3-d]pyrimidine]
[1]
  DNA fragmentation rate: increased significantly
MCF7 cells [2]
  percentage of late apoptotic cells (Q1-UR): 1.7%
  percentage of necrotic cells (Q1-UL): 0.96%
  percentage of early apoptotic cells (Q1-LR): 11.49%
  induction of apoptotic death: induced the apoptotic death

## COc1ccc(-c2c(Cl)n(-c3ccc(Cl)cc3Cl)c3ncnc(Cl)c23)cc1OC [Compound 4b, 4,6-dichloro-7-(2,4-dichlorophenyl)-5-(3,4-dimethoxyphenyl)-7H-pyrrolo[2,3-d]pyrimidine]
DR4 [3]
  DR4 mRNA level: up-regulated
DR5 [4]
  DR5 mRNA level: up-regulated
Bcl-2 [5]
  Bcl-2 mRNA level: down-regulated
P53
  P53 mRNA level: up-regulated
Casp-3
  Casp-3 mRNA level: up-regulated
BAX [6]
  BAX mRNA level: up-regulated

## COc1ccc(-c2c(Cl)n(-c3ccc(Cl)cc3Cl)c3ncnc(N4CCOCC4)c23)cc1OC [Compound 18b, 4-(6-chloro-7-(2,4-dichlorophenyl)-5-(3,4-dimethoxyphenyl)-7H-pyrrolo[2,3-d]pyrimidin-4-yl)morpholine]
[1]
  DNA fragmentation rate: increased significantly
MCF7 cells [2]
  percentage of late apoptotic cells (Q1-UR): 0.89%
  percentage of necrotic cells (Q1-UL): 0.76%
  percentage of early apoptotic cells (Q1-LR): 20.63%
  induction of apoptotic death: induced the apoptotic death

## COc1cccc2c1C(=O)c1c(O)c3c(c(O)c1C2=O)C[C@@](O)(C(=O)CO)C[C@@H]3O[C@H]1C[C@H](N)[C@H](O)[C@H](C)O1 [Dox, Doxorubicin, reference compound]
DR4 [3]
  DR4 mRNA level: up-regulated
CDK4
  CDK4 mRNA level: no significant difference
[7]
  DNA fragmentation rate: increased significantly
DR5 [8]
  DR5 mRNA level: no significant difference
DR5 [4]
  DR5 mRNA level: up-regulated
DR4 [9]
  DR4 mRNA level: no significant difference
Bcl-2 [5]
  Bcl-2 mRNA level: down-regulated
IL-8
  IL-8 mRNA level: no significant difference
P53
  P53 mRNA level: up-regulated
Casp-3
  Casp-3 mRNA level: up-regulated
Bcl-2 [10]
  Bcl-2 mRNA level: no significant difference
BAX [11]
  BAX mRNA level: no significant difference
BAX [6]
  BAX mRNA level: up-regulated

## COc1ccc(-c2c(Cl)n(-c3ccc(Cl)cc3Cl)c3ncnc(NN)c23)cc1OC [Compound 14b, 6-chloro-7-(2,4-dichlorophenyl)-5-(3,4-dimethoxyphenyl)-4-hydrazineyl-7H-pyrrolo[2,3-d]pyrimidine]
[1]
  DNA fragmentation rate: increased significantly
MCF7 cells [12]
  cell cycle arrest (phase): G1 and S phases; also recorded: G1/S phase
  percentage of cells in the G0/G1 phase: 85.98%

## NNc1ncnc2c1c(-c1ccc(Br)cc1)c(Cl)n2-c1ccc(Cl)cc1Cl [Compound 14a, 5-(4-bromophenyl)-6-chloro-7-(2,4-dichlorophenyl)-4-hydrazineyl-7H-pyrrolo[2,3-d]pyrimidine]
[1]
  DNA fragmentation rate: increased significantly
MCF7 cells [12]
  cell cycle arrest (phase): G1 and S phases; also recorded: G1/S phase
  percentage of cells in the G0/G1 phase: 68.60%

## CN1CCN(c2nc(C(Cl)(Cl)Cl)nc3c2c(-c2ccc(Br)cc2)c(Cl)n3-c2ccc(Cl)cc2Cl)CC1 [Compound 17, 5-(4-bromophenyl)-6-chloro-7-(2,4-dichlorophenyl)-4-(4-methylpiperazin-1-yl)-2-(trichloromethyl)-7H-pyrrolo[2,3-d]pyrimidine]
CDK4
  CDK4 mRNA level: lowered
[7]
  DNA fragmentation rate: increased significantly
DR5 [8]
  DR5 mRNA level: up-regulated
DR4 [9]
  DR4 mRNA level: up-regulated
IL-8
  IL-8 mRNA level: lowered
Bcl-2 [10]
  Bcl-2 mRNA level: down-regulated
BAX [11]
  BAX mRNA level: up-regulated
